In US9770025B2, “Fungicidal compositions” (Syngenta Participations AG, priority 2013, dated 2017):
“And” between values parts separate entries of the source, which are not always exact repeats. Identical values can stand only once. Like-named read-outs stand apart in the source and are kept apart here.

What was measured:
Assay type in all cases: cell-based
[1] = test system: Botryotinia fuckeliana (Botrytis cinerea); assay: Botryotinia fuckeliana (Botrytis cinerea) liquid culture growth inhibition; conditions: for inhibition at 0.0016 ppm: read-out: Compound 1.001 inhibition (%), 0.0016 ppm; for inhibition at 0.0125 ppm: read-out: Compound 1.001 inhibition (%), 0.0125 ppm
Description: (§1) Liquid Culture Tests in Well Plates
(§2) Mycelia fragments or conidia suspensions of a fungus, prepared either freshly from liquid cultures of the fungus or from cryogenic storage, were directly mixed into nutrient broth. DMSO solutions of the test compound (max. 10 mg/ml) was diluted with 0.025% Tween20 by factor 50 and 10 μl of this solution was pipetted into a microtiter plate (96-well format). The nutrient broth containing the fungal spores/mycelia fragments was then added to give an end concentration of the tested compound. The test plates were incubated in the dark at 24° C. and 96% rh. The inhibition of fungal growth was determined photometrically and visually after 2-4 days, depending on the pathosystem, and percent antifungal activity relative to the untreated check was calculated.
Botryotinia fuckeliana (Botrytis cinerea)/Liquid Culture:
Conidia of the fungus from cryogenic storage were directly mixed into nutrient broth (Vogels broth). After placing a (DMSO) solution of test compound into a microtiter plate (96-well format), the nutrient broth containing the fungal spores was added.

[2] = test system: Alternaria solani; assay: Alternaria solani liquid culture growth inhibition; conditions: for inhibition at 0.0008 ppm: read-out: Compound 1.001 inhibition (%), 0.0008 ppm; for inhibition at 0.0016 ppm: read-out: Compound 1.001 inhibition (%), 0.0016 ppm; for inhibition at 0.0031 ppm: read-out: Compound 1.001 inhibition (%), 0.0031 ppm
Description: as §1
as §2, with “The nutrient broth containing the fungal spores/mycelia fragments was then added to give an end concentration of the tested compound.” left out
Alternaria solanil/Liquid Culture:
(§3) Conidia of the fungus from cryogenic storage were directly mixed into nutrient broth (PDB potato dextrose broth). After placing a (DMSO) solution of test compound into a microtiter plate (96-well format), the nutrient broth containing the fungal spores was added.

[3] = test system: Mycosphaerella graminicola (Septoria tritici); assay: Mycosphaerella graminicola (Septoria tritici) liquid culture growth inhibition; conditions: for inhibition at 0.0008 ppm / inhibition at 0.0016 ppm / inhibition at 0.0031 ppm: Zymoseptoria tritici; for inhibition at 0.0008 ppm: read-out: Compound 1.001 inhibition (%), 0.0008 ppm; for inhibition at 0.0016 ppm: read-out: Compound 1.001 inhibition (%), 0.0016 ppm; for inhibition at 0.0031 ppm: read-out: Compound 1.001 inhibition (%), 0.0031 ppm
Description: as §1, §2
Mycosphaerella graminicola (Septoria tritici)/Liquid Culture:
as §3

[4] = test system: Gaeumannomyces graminis; assay: Gaeumannomyces graminis liquid culture growth inhibition; conditions: Gaeumannomyces graminis, read-out: Compound 1.001 inhibition (%), in PDB
Description: as §1, §2
Gaeumannomyces graminis/Liquid Culture:
Mycelial fragments of the fungus from cryogenic storage were directly mixed into nutrient broth (PDB potato dextrose broth). After placing a (DMSO) solution of test compound into a microtiter plate (96-well format), the nutrient broth containing the fungal spores was added.

[5] = test system: Fusarium culmorum; assay: Fusarium culmorum liquid culture growth inhibition; conditions: for inhibition at 0.025 ppm: read-out: Compound 1.001 inhibition (%), 0.0250 ppm; for inhibition at 0.05 ppm: read-out: Compound 1.001 inhibition (%), 0.0500 ppm
Description: as §1, §2
Fusarium culmorum/Liquid Culture:
as §3

[6] = test system: Pythium ultimum; assay: Pythium ultimum (seedling damping off) liquid culture growth inhibition; conditions: Globisporangium ultimum, read-out: Compound 1.001 inhibition (%), PDB
Description: as §1, §2
Pythium ultimum Seedling Damping Off)/Liquid Culture:
Mycelia fragments and oospores of a newly grown liquid culture of the fungus were directly mixed into nutrient broth (PDB potato dextrose broth). After placing a (DMSO) solution of the test compounds into a microtiter plate (96-well format), the nutrient broth containing the fungal mycelia/spore mixture was added.

[7] = test system: Monographella nivalis (Microdochium nivale); assay: Monographella nivalis (Microdochium nivale) liquid culture growth inhibition
Description: as §1, §2
Monographella nivalis (Microdochium nivale)/Liquid Culture:
as §3

[8] = Botrytis cinerea, Vogels Broth, Table 6
[9] = Botrytis cinerea, in Vogels Broth
[10] = Alternaria solani, PDB, Table 7
[11] = Alternaria solani, PDB, Table 9
[12] = Alternaria solani, PDB, Table 11
[13] = Alternaria solani, PDB, Table 13
[14] = Fusarium culmorum, PDB, Table 4

CON(C(=O)c1cn(C)nc1C(F)F)C(C)Cc1c(Cl)cc(Cl)cc1Cl (stereo not drawn) [Compound 1.001, 3-(difluoromethyl)-N-methoxy-1-methyl-N-[1-methyl-2-(2,4,6-trichlorophenyl)ethyl]pyrazole-4-carboxamide]
Compound 1.001 inhibition (%) ([1]; 0.0016 ppm, in Vogels Broth): 33% and 29%
Compound 1.001 inhibition (%) ([1]; 0.0031 ppm, in Vogels Broth): 54%
Compound 1.001 inhibition (%) ([1]; 0.0063 ppm, in Vogels Broth): 62% and 38%
inhibition at 0.0004 ppm ([1]; Botrytis cinerea, read-out: Compound 1.001 inhibition (%), 0.0004 ppm, in Vogels Broth): 8%
inhibition at 0.0008 ppm ([1]; Botrytis cinerea, read-out: Compound 1.001 inhibition (%), 0.0008 ppm, in Vogels Broth): 21%
inhibition at 0.0016 ppm [1, 8]: 16%
inhibition at 0.0016 ppm [1, 9]: 26%
inhibition at 0.0031 ppm ([1]; Botrytis cinerea, read-out: Compound 1.001 inhibition (%), 0.0031 ppm, Vogels Broth, Table 6): 49%
inhibition at 0.0031 ppm ([1]; Botrytis cinerea, read-out: Compound 1.001 inhibition (%), 0.0031 ppm, in Vogels Broth): 44%
inhibition at 0.0063 ppm ([1]; Botrytis cinerea, read-out: Compound 1.001 inhibition (%), 0.0063 ppm, Vogels Broth, Table 6): 61%
inhibition at 0.0125 ppm [1, 8]: 79%
inhibition at 0.0125 ppm [1, 9]: 79%
inhibition at 0.0031 ppm ([1]; Botrytis cinerea, read-out: Compound 1.001 inhibition (%), compound 1.001 alone at 0.0031 ppm, in Vogels Broth): 40%
inhibition at 0.0063 ppm ([1]; Botrytis cinerea, read-out: Compound 1.001 inhibition (%), compound 1.001 alone at 0.0063 ppm, in Vogels Broth): 60%
Compound 1.001 inhibition (%) ([2]; 0.0016 ppm, in PDB): 74%
inhibition at 0.0004 ppm ([2]; Alternaria solani, read-out: Compound 1.001 inhibition (%), 0.0004 ppm, in PDB): 21%
inhibition at 0.0008 ppm [2, 10]: 36%
inhibition at 0.0008 ppm [2, 11]: 37%
inhibition at 0.0008 ppm [2, 12]: 42%
inhibition at 0.0008 ppm [2, 13]: 51%
inhibition at 0.0016 ppm [2, 10]: 57%
inhibition at 0.0016 ppm [2, 11]: 64%
inhibition at 0.0016 ppm [2, 12]: 68%
inhibition at 0.0016 ppm [2, 13]: 69%
inhibition at 0.0016 ppm ([2]; Alternaria solani, in PDB): 65%
inhibition at 0.0031 ppm [2, 10]: 81%
inhibition at 0.0031 ppm [2, 13]: 82%
Compound 1.001 inhibition (%) ([3]; 0.0016 ppm, in PDB): 33%
Compound 1.001 inhibition (%) ([3]; 0.0031 ppm, in PDB): 82%
inhibition at 0.0008 ppm ([3]; PDB, Table 8): 15%
inhibition at 0.0008 ppm ([3]; in PDB): 19%
inhibition at 0.0016 ppm ([3]; PDB, Table 8): 34%
inhibition at 0.0016 ppm ([3]; PDB, Table 12): 54%
inhibition at 0.0016 ppm ([3]; PDB, Table 14): 47%
inhibition at 0.0031 ppm ([3]; PDB, Table 8): 81%
inhibition at 0.0031 ppm ([3]; in PDB): 83%
inhibition at 0.025 ppm ([4]; 0.0250 ppm): 0%
inhibition at 0.05 ppm ([4]; 0.0500 ppm): 0%
inhibition at 0.2 ppm ([4]; 0.2000 ppm): 0%
Compound 1.001 inhibition (%) ([5]; 0.0250 ppm, in PDB): 27% and 34% and 29%
Compound 1.001 inhibition (%) ([5]; 0.0500 ppm, in PDB): 54% and 53%
Compound 1.001 inhibition (%) ([5]; 0.1000 ppm, in PDB): 57%
Compound 1.001 inhibition (%) ([5]; 0.2000 ppm, in PDB): 59% and 57%
inhibition at 0.0016 ppm ([5]; Fusarium culmorum, read-out: Compound 1.001 inhibition (%), 0.0016 ppm, PDB, Table 4): 7%
inhibition at 0.0031 ppm ([5]; Fusarium culmorum, read-out: Compound 1.001 inhibition (%), 0.0031 ppm, PDB, Table 4): 19%
inhibition at 0.0063 ppm ([5]; Fusarium culmorum, read-out: Compound 1.001 inhibition (%), 0.0063 ppm, PDB, Table 4): 14%
inhibition at 0.0125 ppm ([5]; Fusarium culmorum, read-out: Compound 1.001 inhibition (%), 0.0125 ppm, PDB, Table 4): 20%
inhibition at 0.025 ppm [5, 14]: 38%
inhibition at 0.025 ppm ([5]; Fusarium culmorum, in PDB): 24%
inhibition at 0.05 ppm [5, 14]: 46%
inhibition at 0.05 ppm ([5]; Fusarium culmorum, in PDB): 49%
inhibition at 0.1 ppm ([5]; Fusarium culmorum, read-out: Compound 1.001 inhibition (%), 0.1000 ppm, in PDB): 51%
inhibition at 0.2 ppm ([5]; Fusarium culmorum, read-out: Compound 1.001 inhibition (%), 0.2000 ppm, in PDB): 55%
inhibition at 0.0016 ppm ([6]; 0.0016 ppm, Table 10): 0%
inhibition at 0.0031 ppm ([6]; 0.0031 ppm, Table 10): 0%
inhibition at 0.0063 ppm ([6]; 0.0063 ppm, Table 3): 11%
inhibition at 0.0125 ppm ([6]; 0.0125 ppm, Table 3): 0%
inhibition at 0.025 ppm ([6]; 0.0250 ppm, Table 3): 0%
inhibition at 0.05 ppm ([6]; 0.0500 ppm, Table 3): 0%
inhibition at 0.1 ppm ([6]; 0.1000 ppm, Table 3): 2%
inhibition at 0.2 ppm ([6]; 0.2000 ppm, Table 3): 0%
Compound 1.001 inhibition (%) ([7]; 0.0008 ppm, in PDB): 3%
Compound 1.001 inhibition (%) ([7]; 0.0250 ppm, in PDB): 5%
Compound 1.001 inhibition (%) ([7]; 0.0500 ppm, in PDB): 48%
inhibition at 0.0004 ppm ([7]; Monographella nivalis, read-out: Compound 1.001 inhibition (%), 0.0004 ppm, PDB, Table 5): 0%
inhibition at 0.0008 ppm ([7]; Monographella nivalis, read-out: Compound 1.001 inhibition (%), 0.0008 ppm, PDB, Table 5): 0%
inhibition at 0.0008 ppm ([7]; Monographella nivalis, read-out: Compound 1.001 inhibition (%), 0.0008 ppm, in PDB): 2%
inhibition at 0.0016 ppm ([7]; Monographella nivalis, read-out: Compound 1.001 inhibition (%), 0.0016 ppm, PDB, Table 5): 0%
inhibition at 0.0016 ppm ([7]; Monographella nivalis, read-out: Compound 1.001 inhibition (%), 0.0016 ppm, in PDB): 0%
inhibition at 0.0031 ppm ([7]; Monographella nivalis, read-out: Compound 1.001 inhibition (%), 0.0031 ppm, PDB, Table 5): 0%
inhibition at 0.0125 ppm ([7]; Monographella nivalis, read-out: Compound 1.001 inhibition (%), 0.0125 ppm, in PDB): 0%
inhibition at 0.05 ppm ([7]; Monographella nivalis, read-out: Compound 1.001 inhibition (%), 0.0500 ppm, in PDB): 51%
inhibition at 0.0004 ppm ([7]; Monographella nivalis, read-out: Compound 1.001 inhibition (%), compound 1.001 alone at 0.0004 ppm, in PDB): 4%
inhibition at 0.0008 ppm ([7]; Monographella nivalis, read-out: Compound 1.001 inhibition (%), compound 1.001 alone at 0.0008 ppm, in PDB): 1%
inhibition at 0.0016 ppm ([7]; Monographella nivalis, read-out: Compound 1.001 inhibition (%), compound 1.001 alone at 0.0016 ppm, in PDB): 0%
inhibition at 0.0063 ppm ([7]; Monographella nivalis, read-out: Compound 1.001 inhibition (%), compound 1.001 alone at 0.0063 ppm, in PDB (Table 38)): 0%
inhibition at 0.0125 ppm ([7]; Monographella nivalis, read-out: Compound 1.001 inhibition (%), compound 1.001 alone at 0.0125 ppm, in PDB): 0%
inhibition at 0.0125 ppm ([7]; Monographella nivalis, read-out: Compound 1.001 inhibition (%), compound 1.001 alone at 0.0125 ppm, in PDB (Table 38)): 0%
